Like-named read-outs stand apart in the source and are kept apart here.
Columns and labels:
[1] = amide bond
[2] = amide bond, 18-membered ring
[3] = the molecule shown is the open-chain precursor; amide bond; 18-membered ring
[4] = amide bond, 18-membered ring; remark: listed apart in the source

Compound: CCc1ccc2c(C[C@@H]3NC(=O)[C@@H](C[C@H]4CC[C@@H](O)CC4)NC(=O)[C@@H]4C[C@@H](OC(C)(C)C)CN4C(=O)[C@@H](NC(=O)[C@H](Cc4ccccc4)N(CC(=O)OC(C)(C)C)C(=O)OC(C)(C)C)CCCNC(=O)[C@H](CCCNC(=N)NS(=O)(=O)c4c(C)c(C)c5c(c4C)CC(C)(C)O5)NC3=O)cn(C(=O)OC(C)(C)C)c2c1
- ring closure, yield of all isomers ([1]; from CCc1ccc2c(C[C@H](NC(=O)[C@@H](C[C@H]3CC[C@@H](O)CC3)NC(=O)[C@@H]3C[C@@H](OC(C)(C)C)CN3)C(=O)N[C@@H](CCCNC(=N)NS(=O)(=O)c3c(C)c(C)c4c(c3C)CC(C)(C)O4)C(=O)NCCC[C@H](NC(=O)[C@H](Cc3ccccc3)N(CC(=O)OC(C)(C)C)C(=O)OC(C)(C)C)C(=O)O)cn(C(=O)OC(C)(C)C)c2c1): 42%

Compound: Cc1c(C)c(S(=O)(=O)NC(=N)NCCC[C@@H]2NC(=O)[C@H](Cc3c[nH]c4ccccc34)NC(=O)[C@@H](C[C@H]3CC[C@@H](O)CC3)NC(=O)[C@@H]3C[C@H](NC(=O)OC(C)(C)C)CN3C(=O)[C@@H](NC(=O)[C@H](Cc3ccccc3)N(CC(=O)OC(C)(C)C)C(=O)OC(C)(C)C)CCCNC2=O)c(C)c2c1OC(C)(C)C2
- ring closure, yield of all isomers ([1]; from Cc1c(C)c(S(=O)(=O)NC(=N)NCCC[C@H](NC(=O)[C@H](Cc2c[nH]c3ccccc23)NC(=O)[C@@H](C[C@H]2CC[C@@H](O)CC2)NC(=O)[C@@H]2C[C@H](NC(=O)OC(C)(C)C)CN2)C(=O)NCCC[C@H](NC(=O)[C@H](Cc2ccccc2)N(CC(=O)OC(C)(C)C)C(=O)OC(C)(C)C)C(=O)O)c(C)c2c1OC(C)(C)C2): 100%

Compound: Cc1c(C)c(S(=O)(=O)NC(=N)NCCC[C@@H]2NC(=O)[C@H](Cc3cn(C(=O)OC(C)(C)C)c4ccccc34)NC(=O)[C@@H](C[C@H]3CC[C@@H](O)CC3)NC(=O)[C@@H]3C[C@@H](OC(C)(C)C)CN3C(=O)[C@@H](NC(=O)OC(C)(C)C)CCCNC2=O)c(C)c2c1OC(C)(C)C2
- ring closure, yield of all isomers ([1]; from Cc1c(C)c(S(=O)(=O)NC(=N)NCCC[C@H](NC(=O)[C@H](Cc2cn(C(=O)OC(C)(C)C)c3ccccc23)NC(=O)[C@@H](C[C@H]2CC[C@@H](O)CC2)NC(=O)[C@@H]2C[C@@H](OC(C)(C)C)CN2)C(=O)NCCC[C@H](NC(=O)OC(C)(C)C)C(=O)O)c(C)c2c1OC(C)(C)C2, HATU, THF, 13.1 mM, 25.0 °C, 0.25 h): 95.3%

Compound: Cc1c(C)c(S(=O)(=O)NC(=N)NCCC[C@@H]2NC(=O)[C@H](Cc3cn(C(=O)OC(C)(C)C)c4ccccc34)NC(=O)[C@@H](C[C@H]3CC[C@@H](O)CC3)NC(=O)[C@@H]3C[C@@H](OC(C)(C)C)CN3C(=O)[C@@H](NC(=O)[C@H](Cc3ccccc3)N(CC(=O)OC(C)(C)C)C(=O)OC(C)(C)C)CCCNC2=O)c(C)c2c1OC(C)(C)C2
- ring closure, yield of all isomers ([1]; from Cc1c(C)c(S(=O)(=O)NC(=N)NCCC[C@H](NC(=O)[C@H](Cc2cn(C(=O)OC(C)(C)C)c3ccccc23)NC(=O)[C@@H](C[C@H]2CC[C@@H](O)CC2)NC(=O)[C@@H]2C[C@@H](OC(C)(C)C)CN2)C(=O)NCCC[C@H](NC(=O)[C@H](Cc2ccccc2)N(CC(=O)OC(C)(C)C)C(=O)OC(C)(C)C)C(=O)O)c(C)c2c1OC(C)(C)C2, HATU, THF, 14.1 mM, 25.0 °C, 0.5 h): 87%

Compound: Cc1c(C)c(S(=O)(=O)NC(=N)NCCC[C@@H]2NC(=O)[C@H](Cc3cn(C(=O)OC(C)(C)C)c4ccccc34)NC(=O)[C@@H](C[C@H]3CC[C@@H](O)CC3)NC(=O)[C@@H]3C[C@@H](OCC(=O)OC(C)(C)C)CN3C(=O)[C@@H](NC(=O)[C@H](Cc3ccccc3)N(CC(=O)OC(C)(C)C)C(=O)OC(C)(C)C)CCCNC2=O)c(C)c2c1OC(C)(C)C2
- ring closure, yield of all isomers ([1]; from Cc1c(C)c(S(=O)(=O)NC(=N)NCCC[C@H](NC(=O)[C@H](Cc2cn(C(=O)OC(C)(C)C)c3ccccc23)NC(=O)[C@@H](C[C@H]2CC[C@@H](O)CC2)NC(=O)[C@@H]2C[C@@H](OCC(=O)OC(C)(C)C)CN2)C(=O)NCCC[C@H](NC(=O)[C@H](Cc2ccccc2)N(CC(=O)OC(C)(C)C)C(=O)OC(C)(C)C)C(=O)O)c(C)c2c1OC(C)(C)C2): 83%

Compound: Cc1c(C)c(S(=O)(=O)NC(=N)NCCC[C@@H]2NC(=O)[C@H](Cc3cn(C(=O)OC(C)(C)C)c4ncccc34)NC(=O)[C@@H](C[C@H]3CC[C@@H](O)CC3)NC(=O)[C@@H]3C[C@@H](OC(C)(C)C)CN3C(=O)[C@@H](NC(=O)[C@H](Cc3ccccc3)N(CC(=O)OC(C)(C)C)C(=O)OC(C)(C)C)CCCNC2=O)c(C)c2c1OC(C)(C)C2
- ring closure, yield of all isomers ([1]; from Cc1c(C)c(S(=O)(=O)NC(=N)NCCC[C@H](NC(=O)[C@H](Cc2cn(C(=O)OC(C)(C)C)c3ncccc23)NC(=O)[C@@H](C[C@H]2CC[C@@H](O)CC2)NC(=O)[C@@H]2C[C@@H](OC(C)(C)C)CN2)C(=O)NCCC[C@H](NC(=O)[C@H](Cc2ccccc2)N(CC(=O)OC(C)(C)C)C(=O)OC(C)(C)C)C(=O)O)c(C)c2c1OC(C)(C)C2): 93.4%

Compound: ((31R,6S,9S,15S,19R,20aS)-6-((1H-indol-3-yl)methyl)-15-((S)-2-((carboxymethyl)amino)-3-phenylpropanamido)-9-(3-guanidinopropyl)-3-(((1s,4S)-4-hydroxycyclohexyl)methyl)-1,4,7,10,16-pentaoxoicosahydropyrrolo[1,2-a][1,4,7,10,13]pentaazacyclooctadecin-19-yl)glycine
- ring closure, yield after HPLC ([2]; with chain assembly): 19.4%

Compound: ((S)-1-(((3R,6S,9S,15S,19R,20aS)-6-((1H-indol-3-yl)methyl)-19-acetamido-9-(3-guanidinopropyl)-3-(((1s,4S)-4-hydroxycyclohexyl)methyl)-1,4,7,10,16-pentaoxoicosahydropyrrolo[1,2-a][1,4,7,10,13]pentaazacyclooctadecin-15-yl)amino)-1-oxo-3-phenylpropan-2-yl)glycine
- ring closure, yield after HPLC ([2]; 2 steps): 20%

Compound: ((S)-1-(((3R,6S,9S,15S,19R,20aS)-6-((1H-indol-3-yl)methyl)-19-amino-9-(3-guanidinopropyl)-3-(((1s,4S)-4-hydroxycyclohexyl)methyl)-1,4,7,10,16-pentaoxoicosahydropyrrolo[1,2-a][1,4,7,10,13]pentaazacyclooctadecin-15-yl)amino)-1-oxo-3-phenylpropan-2-yl)glycine
- ring closure, yield after HPLC ([2]; 2 steps): 6.6%

Compound: ((S)-1-(((3R,6S,9S,15S,19R,20aS)-9-(3-guanidinopropyl)-19-hydroxy-3-(((1s,4S)-4-hydroxycyclohexyl)methyl)-6-((5-methoxy-1H-indol-3-yl)methyl)-1,4,7,10,16-pentaoxoicosahydropyrrolo[1,2-a][1,4,7,10,13]pentaazacyclooctadecin-15-yl)amino)-1-oxo-3-phenylpropan-2-yl)glycine
- ring closure, yield after HPLC ([2]; 2 steps): 6%

Compound: ((S)-1-(((3R,6S,9S,15S,19R,20aS)-9-(3-guanidinopropyl)-19-hydroxy-3-(((1s,4S)-4-hydroxycyclohexyl)methyl)-6-((6-methoxy-1H-indol-3-yl)methyl)-1,4,7,10,16-pentaoxoicosahydropyrrolo[1,2-a][1,4,7,10,13]pentaazacyclooctadecin-15-yl)amino)-1-oxo-3-phenylpropan-2-yl)glycine
- ring closure, yield after HPLC ([2]; with chain assembly): 2.3%

Compound: ((S)-1-(((3R,6S,9S,15S,19S,20aS)-6-((1H-indol-3-yl)methyl)-19-acetamido-9-(3-guanidinopropyl)-3-(((1s,4S)-4-hydroxycyclohexyl)methyl)-1,4,7,10,16-pentaoxoicosahydropyrrolo[1,2-a][1,4,7,10,13]pentaazacyclooctadecin-15-yl)amino)-1-oxo-3-phenylpropan-2-yl)glycine
- ring closure, yield after HPLC ([2]; 2 steps): 30%

Compound: ((S)-1-(((31R,6S,9S,15S,19R,20aS)-6-((1H-indazol-3-yl)methyl)-9-(3-guanidinopropyl)-19-hydroxy-3-(((1s,4S)-4-hydroxycyclohexyl)methyl)-1,4,7,10,16-pentaoxoicosahydropyrrolo[1,2-a][1,4,7,10,13]pentaazacyclooctadecin-15-yl)amino)-1-oxo-3-phenylpropan-2-yl)glycine
- ring closure, yield after HPLC ([2]; 2 steps): 35%

Compound: H-Hyp(tBu)-dAla(cis-4-hydroxycyclohexyl)-Trp(Boc,6-Et)-Arg(Pbf)-(Nδ)Orn(Nα-[Boc-N(CH2CO2tBu)-Phe])-OH
- ring closure, isolated yield [3]: 42%

Compound: H-Pro((4S)-NHBoc)-dAla(3-(cis-4-hydroxycyclohexyl))-Trp(Boc)-Arg(Pbf)-Orn(Nα-[Boc-N(CH2CO2tBu)-Phe]; chain through Nδ)-OH
- ring closure, crude yield ([4]; the molecule shown is the open-chain precursor, HATU/NMM, THF/DMF): 100%

Compound: H-Pro-dAla(3-(cis-4-hydroxycyclohexyl))-Ala(3-(1-Boc-1H-pyrrolo[2,3-b]pyridin-3-yl))-Arg(Pbf)-Orn(Nα-[Boc-N(CH2CO2tBu)-Phe]; chain through Nδ)-OH
- ring closure, crude yield ([4]; the molecule shown is the open-chain precursor): 100%

Compound: tert-butyl-3-(((3R,6S,9S,15S,19R,20aS)-19-(tert-butoxy)-15-((tert-butoxycarbonyl)amino)-3-(((1s,4S)-4-hydroxycyclohexyl)methyl)-1,4,7,10,16-pentaoxo-9-(3-(3-((2,2,4,6,7-pentamethyl-2,3-dihydrobenzofuran-5-yl)sulfonyl)guanidino)propyl)icosahydropyrrolo[1,2-a][1,4,7,10,13]pentaazacyclooctadecin-6-yl)methyl)-1H-indole-1-carboxylate
- ring closure, crude yield ([4]; HATU/NMM, THF/DMF 10:1, 13.1 mM): 95.3%

Reference: patent US20190270778A1, “Cyclic Peptides As C5a Receptor Antagonists” (priority 2016, published 2019)
